Results on 29 compounds are retold here after patent publication US10329294B2, “Pyrazolopyrimidine inhibitors of IRAK4 activity” (MERCK SHARP & DOHME CORP., priority 2015, dated 2019).

As a reminder, the IC50 is the concentration needed to halve the response being measured.

Where a name gives a salt, the structure may show the parent alone.

For this assay, the target named is IRAK4 (Homo sapiens (Human), UniProt Q9NWZ3). In words: IRAK4 Kinase Assay. The format is biochemical. Conditions: IMAP fluorescence polarization, 0.5 nM GST tagged IRAK4, 100 μM ATP, 30 minutes at 25° C.; read-out: IRAK4 IC50.
IRAK4, sequence (Q9NWZ3 whole entry): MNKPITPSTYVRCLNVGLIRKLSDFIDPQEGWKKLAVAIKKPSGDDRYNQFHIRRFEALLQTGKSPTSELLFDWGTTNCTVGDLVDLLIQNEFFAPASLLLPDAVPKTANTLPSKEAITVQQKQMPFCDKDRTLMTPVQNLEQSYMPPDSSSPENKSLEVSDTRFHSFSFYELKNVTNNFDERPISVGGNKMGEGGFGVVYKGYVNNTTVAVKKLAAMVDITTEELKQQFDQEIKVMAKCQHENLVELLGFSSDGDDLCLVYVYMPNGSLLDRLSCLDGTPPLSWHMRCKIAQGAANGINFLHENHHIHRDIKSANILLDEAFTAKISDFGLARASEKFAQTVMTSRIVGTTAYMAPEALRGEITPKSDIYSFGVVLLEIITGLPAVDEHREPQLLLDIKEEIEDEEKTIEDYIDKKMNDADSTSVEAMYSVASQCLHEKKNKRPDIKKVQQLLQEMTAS

Turning to `Cn1cc(NC(=O)c2cnn3ccc(N4CC5CC4CCN5)nc23)c(C(F)(F)F)n1` (centres unmarked) [Example 74, 5-(2,6-diazabicyclo[3.2.1]oct-6-yl)-N-[1-methyl-3-(trifluoromethyl)-1H-pyrazol-4-yl]pyrazolo[1,5-a]pyrimidine-3-carboxamide trifluoroacetate], the IC50 stood at 41 nM.
For `Cn1cc(NC(=O)c2cnn3ccc(N4CC[C@@H]5C[C@H]4CN5)nc23)c(C(F)(F)F)n1` [Example 213, 5-[(1S,5R)-2,6-diazabicyclo[3.2.1]oct-2-yl]-N-[1-methyl-3-(trifluoromethyl)-1H-pyrazol-4-yl]pyrazolo[1,5-a]pyrimidine-3-carboxamide], the IC50 turned out to be 3 nM.
The figure for `O=C(Nc1ccccc1Cl)c1cnn2ccc(N3CC4CCC3CN4)nc12` (centres unmarked) [Example 107, N-(2-chlorophenyl)-5-(2,5-diazabicyclo[2.2.2]oct-2-yl)pyrazolo[1,5-a]pyrimidine-3-carboxamide trifluoroacetate] is 521 nM; for `O=C(Nc1ccccc1Cl)c1cnn2ccc(N[C@@H]3CCCC[C@@H]3O)nc12` [Example 194, N-(2-chlorophenyl)-5-{[(1R,2S)-2-hydroxycyclohexyl]amino} pyrazolo[1,5-a]pyrimidine-3-carboxamide] it is 1750 nM.
In the case of `Cn1cc(NC(=O)c2cnn3ccc(N[C@H]4CCCCNC4)nc23)c(C(F)(F)F)n1` (single isomer, unassigned) [Example 159, 5-[(3S)- or (3R)-azepan-3-ylamino]-N-[1-methyl-3-(trifluoromethyl)-1H-pyrazol-4-yl]pyrazolo[1,5-a]pyrimidine-3-carboxamide trifluoroacetate], the IC50 turned out to be 18 nM.
The figure for `N[C@H]1CCCC[C@H]1Nc1ccn2ncc(C(=O)Nc3ccsc3)c2n1` [Example 181, 5-{[(1R,2S)-2-aminocyclohexyl]amino}-N-thiophen-3-ylpyrazolo[1,5-a]pyrimidine-3-carboxamide trifluoroacetate] is 54 nM; for `Cn1cc(NC(=O)c2cnn3ccc(N4CC5CCC(C4)N5)nc23)c(C(F)(F)F)n1` [Example 81, 5-(3,8-diazabicyclo[3.2.1]oct-3-yl)-N-[1-methyl-3-(trifluoromethyl)-1H-pyrazol-4-yl]pyrazolo[1,5-a]pyrimidine-3-carboxamide trifluoroacetate] it is 9 nM; for `Cn1cc(NC(=O)c2cnn3ccc(N4C[C@@H]5CNC[C@H]4C5)nc23)c(C(F)F)n1` (single isomer, unassigned) [Example 239, 5-[(1S,5R)- or (1R,5S)-3,6-diazabicyclo[3.2.1]oct-6-yl]-N-[3-(difluoromethyl)-1-methyl-1H-pyrazol-4-yl]pyrazolo[1,5-a]pyrimidine-3-carboxamide] it is 3 nM.
In the case of `CC(C)n1cc(NC(=O)c2cnn3ccc(N[C@@H]4CCCC[C@@H]4O)nc23)c(C(F)F)n1` [Example 199, N-[3-(difluoromethyl)-1-(1-methylethyl)-1H-pyrazol-4-yl]-5-{[(1R,2S)-2-hydroxycyclohexyl]amino} pyrazolo[1,5-a]pyrimidine-3-carboxamide], the concentration for half-maximal inhibition (IC50) was 9 nM.
The same measure for `N[C@@H]1[C@H](Nc2ccn3ncc(C(=O)Nc4ccsc4Br)c3n2)CCCC1(F)F` [Example 128, 5-{[(1R,2R)-2-amino-3,3-difluorocyclohexyl]amino}-N-(2-bromothiophen-3-yl)pyrazolo[1,5-a]pyrimidine-3-carboxamide trifluoroacetate]: 1240 nM.
The figure for `Cn1cc(NC(=O)c2cnn3ccc(N4C[C@H]5CNC[C@@H]4C5)nc23)c(C(F)F)n1` (single isomer, unassigned) [Example 240, 5-[(1S,5R)- or (1R,5S)-3,6-diazabicyclo[3.2.1]oct-6-yl]-N-[3-(difluoromethyl)-1-methyl-1H-pyrazol-4-yl]pyrazolo[1,5-a]pyrimidine-3-carboxamide] is 43 nM; for `O=C(Nc1ccsc1Cl)c1cnn2ccc(N3CC4CCC3CN4)nc12` (centres unmarked) [Example 134, N-(2-chlorothiophen-3-yl)-5-(2,5-diazabicyclo[2.2.2]oct-2-yl)pyrazolo[1,5-a]pyrimidine-3-carboxamide trifluoroacetate] it is 306 nM; for `O=C(Nc1ccccc1I)c1cnn2ccc(N3CC4CCC3CN4)nc12` (centres unmarked) [Example 103, 5-(2,5-diazabicyclo[2.2.2]oct-2-yl)-N-(2-iodophenyl)pyrazolo[1,5-a]pyrimidine-3-carboxamide trifluoroacetate] it is 6060 nM.
The figure for `Cn1cc(NC(=O)c2cnn3ccc(N4C[C@H]5CN[C@H](C5)C4)nc23)c(C(F)(F)F)n1` (single isomer, unassigned) [Example 225, 5-[(1S,5S)- or (1R,5R)-3,6-diazabicyclo[3.2.1]oct-3-yl]-N-[1-methyl-3-(trifluoromethyl)-1H-pyrazol-4-yl]pyrazolo[1,5-a]pyrimidine-3-carboxamide] is 310 nM; for `Cn1cc(NC(=O)c2cnn3ccc(N4C5CCC4CNC5)nc23)c(C(F)(F)F)n1` [Example 226, 5-(3,8-diazabicyclo[3.2.1]oct-8-yl)-N-[1-methyl-3-(trifluoromethyl)-1H-pyrazol-4-yl]pyrazolo[1,5-a]pyrimidine-3-carboxamide trifluoroacetate] it is 2 nM.
Turning to `CN[C@H]1CCCC[C@H]1Nc1ccn2ncc(C(=O)Nc3cn(C)nc3C(F)(F)F)c2n1` [Example 262, N-(1-Methyl-3-(trifluoromethyl)-1H-pyrazol-4-yl)-5-(((1R,2S)-2-(methylamino)cyclohexyl)amino)pyrazolo[1,5-a]pyrimidine-3-carboxamide], the IC50 was 24 nM.
Turning to `N#Cc1ccccc1NC(=O)c1cnn2ccc(N[C@@H]3CCCC(F)(F)[C@@H]3N)nc12` [Example 268, 5-{[(1R,2R)-2-amino-3,3-difluorocyclohexyl]amino}-N-(2-cyanophenyl)pyrazolo[1,5-a]pyrimidine-3-carboxamide], the IC50 worked out at 268 nM.
In the case of `O=C(Nc1ccccc1Br)c1cnn2ccc(N3CC4CCC3CN4)nc12` (centres unmarked) [Example 112, N-(2-bromophenyl)-5-(2,5-diazabicyclo[2.2.2]oct-2-yl)pyrazolo[1,5-a]pyrimidine-3-carboxamide trifluoroacetate], the IC50 was found to be 955 nM.
For the compound `Cn1cc(NC(=O)c2cnn3ccc(N4CCCNCC45CC5)nc23)c(C(F)(F)F)n1` [Example 98, 5-(4,8-diazaspiro[2.6]non-4-yl)-N-[1-methyl-3-(trifluoromethyl)-1H-pyrazol-4-yl]pyrazolo[1,5-a]pyrimidine-3-carboxamide trifluoroacetate], the IC50 is 33 nM.
The figure for `N#Cc1sccc1NC(=O)c1cnn2ccc(N[C@@H]3CCCC(F)(F)[C@@H]3N)nc12` [Example 191, 5-{[(1R,2R)-2-amino-3,3-difluorocyclohexyl]amino}-N-(2-cyanothiophen-3-yl)pyrazolo[1,5-a]pyrimidine-3-carboxamide] is 156 nM; for `N#Cc1cscc1NC(=O)c1cnn2ccc(N[C@@H]3CCCC(F)(F)[C@@H]3N)nc12` [Example 143, 5-{[(1R,2R)-2-amino-3,3-difluorocyclohexyl]amino}-N-(4-cyanothiophen-3-yl)pyrazolo[1,5-a]pyrimidine-3-carboxamide] it is 192 nM.
The same measure for `Cn1cc(NC(=O)c2cnn3ccc(N4CCN5CCCC5C4)nc23)c(C(F)(F)F)n1` (centres unmarked) [Example 18, 5-(hexahydropyrrolo[1,2-a]pyrazin-2(1H)-yl)-N-[1-methyl-3-(trifluoromethyl)-1H-pyrazol-4-yl]pyrazolo[1,5-a]pyrimidine-3-carboxamide]: 97 nM; for `N[C@H]1CCCC[C@H]1Nc1ccn2ncc(C(=O)Nc3ccccc3C(F)(F)F)c2n1` [Example 38, 5-{[(1R,2S)-2-aminocyclohexyl]amino}-N-[2-(trifluoromethyl)phenyl] pyrazolo[1,5-a]pyrimidine-3-carboxamide trifluoroacetate]: 16 nM.
The figure for `Cn1cc(NC(=O)c2cnn3ccc(N[C@@H]4CCCC(F)(F)[C@@H]4N)nc23)c(C#N)n1` [Example 126, 5-{[(1R,2R)-2-amino-3,3-difluorocyclohexyl]amino}-N-(3-cyano-1-methyl-1H-pyrazol-4-yl)pyrazolo[1,5-a]pyrimidine-3-carboxamide trifluoroacetate] is 70 nM; for `O=C(Nc1cn(CC(F)(F)F)nc1C(F)(F)F)c1cnn2ccc(N[C@@H]3CCCC[C@@H]3O)nc12` [Example 57, 5-{[(1R,2S)-2-hydroxycyclohexyl]amino}-N-[1-(2,2,2-trifluoroethyl)-3-(trifluoromethyl)-1H-pyrazol-4-yl]pyrazolo[1,5-a]pyrimidine-3-carboxamide trifluoroacetate] it is 320 nM.
For the compound `Cn1cc(NC(=O)c2cnn3ccc(N[C@H]4CNCCC4(F)F)nc23)c(C(F)F)n1` (single isomer, unassigned) [Example 244, N-[(R or S)-3-(difluoromethyl)-1-methyl-1H-pyrazol-4-yl]-5-[(4,4-difluoropiperidin-3-yl)amino]pyrazolo[1,5-a]pyrimidine-3-carboxamide trifluoroacetate], the IC50 turned out to be 0.5 nM.
The figure for `Cn1cc(NC(=O)c2cnn3ccc(N4C[C@@H]5CC[C@H]4CN5)nc23)c(C(F)F)n1` (single isomer, unassigned) [Example 158, 5-[(1S,4S)- or (1R,4R)-2,5-diazabicyclo[2.2.2]oct-2-yl]-N-[3-(difluoromethyl)-1-methyl-1H-pyrazol-4-yl]pyrazolo[1,5-a]pyrimidine-3-carboxamide trifluoroacetate] is 3 nM; for `N[C@@H]1[C@H](Nc2ccn3ncc(C(=O)Nc4ccccc4C(F)F)c3n2)CCCC1(F)F` [Example 132, 5-{[(1R,2R)-2-amino-3,3-difluorocyclohexyl]amino}-N-[2-(difluoromethyl)phenyl] pyrazolo[1,5-a]pyrimidine-3-carboxamide trifluoroacetate] it is 2100 nM; for `Cn1cc(NC(=O)c2cnn3ccc(N4CCNC(C(F)F)C4)nc23)c(C(F)(F)F)n1` (centres unmarked) [Example 16, 5-[3-(difluoromethyl)piperazin-1-yl]-N-[1-methyl-3-(trifluoromethyl)-1H-pyrazol-4-yl]pyrazolo[1,5-a]pyrimidine-3-carboxamide formate] it is 49 nM.
